From patent US20170130196A1, “METHOD FOR CULTURING AND PATTERNING CELLS” (President and Fellows of Harvard College, priority 2015, published 2017)

Test system: GFP-expressing A549 human lung cancer cells
Test: Response of cells-in-string to toxins/drugs (crossed drug-laden string, confocal imaging)
Format: cell-based
Description: Scale bar represents 150 μm.
Cells in string were evaluated for the effect of a toxic drug on cancer cells. Green fluorescent protein (GFP) expressing A549 human lung cancer cells were grown in cotton string in Matrigel for two days. […] Doxorubicin was selected due to its potency in cancer treatment. These two strings were then crossed and sandwiched between two layers of filter paper that were impregnated with Matrigel. This assembly was cultured for two days and the cellular patterns that were transferred to the paper were imaged. […] A second experiment included the doxorubicin-laden string (FIG. 7B).

For `COc1cccc2c1C(=O)c1c(O)c3c(c(O)c1C2=O)C[C@@](O)(C(=O)CO)C[C@@H]3O[C@H]1C[C@H](N)[C@H](O)[C@H](C)O1` [Doxorubicin], the “cell death of GFP-A549 cells where exposed to drug-laden top string” value (1 μM Doxorubicin embedded in top string, cells grown in silk string for two days, top string removed following 24 h culture (FIG. 7B)) was “died in the area where they were exposed to the top string” and the “cell death of GFP-A549 cells where contacted by drug-laden top string” value (1 mM Doxorubicin encapsulated in string, cells in cotton string in Matrigel, crossed, sandwiched between Matrigel-impregnated filter paper, cultured two days) was “died on the region where they contacted the top string containing doxorubicin”.
